Data from patent US20130244953A1, “DUAL SECURED THERAPEUTIC PEPTIDE DELIVERY SYSTEM” (priority 2011, published 2013).

Tested on: rat red blood cells
Test: Hemolytic assay
Format: cell-based
Settings: 1 μM melittin, 37° C., 1 hour, pH 7.4
Experimental: Hemolytic assay: Rat blood was used to compare hemolytic effects of free melittin, SSNS, and DSNS using DI water as positive control and PBS as negative control. Briefly, rat red blood cells were washed using 210 mM sodium chloride and dispersed in phosphate buffer saline (pH 7.4), To the SSNS, DSNS and free melittin corresponding to melittin concentration of 0.1 to 10 μM, the same amount of red blood cells was added and incubated at 37° C. for 1 hour. Following, each sample was centrifuged at 300 rcf for 2 min. and the optical density of supernatant was measured (λ=405 nm.) for the quantification of lysed cell amount. The results are shown graphically in FIG. 5 and in the corresponding photographs of FIG. 6.

SMILES: CC[C@H](C)[C@H](NC(=O)CN)C(=O)NCC(=O)N[C@@H](C)C(=O)N[C@H](C(=O)N[C@@H](CC(C)C)C(=O)N[C@@H](CCCCN)C(=O)N[C@H](C(=O)N[C@@H](CC(C)C)C(=O)N[C@H](C(=O)N[C@H](C(=O)NCC(=O)N[C@@H](CC(C)C)C(=O)N1CCC[C@H]1C(=O)N[C@@H](C)C(=O)N[C@@H](CC(C)C)C(=O)N[C@H](C(=O)N[C@@H](CO)C(=O)N[C@@H](Cc1c[nH]c2ccccc12)C(=O)N[C@H](C(=O)N[C@@H](CCCCN)C(=O)N[C@@H](CCCNC(=N)N)C(=O)N[C@@H](CCCCN)C(=O)N[C@@H](CCCNC(=N)N)C(=O)N[C@@H](CCC(N)=O)C(=O)N[C@@H](CCC(N)=O)C(N)=O)[C@@H](C)CC)[C@@H](C)CC)[C@@H](C)O)[C@@H](C)O)C(C)C)C(C)C [free melittin, melittin]
- red blood cell lysis: completely lysed the cells
